These results are taken from publication PMC8688338 (Molecular microbiology, 2021).

The target in data set [1] is T. vaginalis nucleoside transporters, Adenosine (HA). In words: High affinity [3H]-adenosine transport in T. vaginalis trophozoites. Format: cell-based, Trichomonas vaginalis.
The test system of data set [2] is T. vaginalis nucleoside transporters, Thymidine (HA). Briefly: Higher affinity [3H]-thymidine transport. Format: cell-based, Trichomonas vaginalis. Conditions: 125 nM [3H]-thymidine, nucleobase at 1 mM.
Data set [3] concerns T. vaginalis nucleoside transporters, Adenosine (LA). In words: Low affinity adenosine transport. Conditions: for Km: read-out: Km,app. In kind it is cell-based, Trichomonas vaginalis.
Data set [4] relates to T. vaginalis trophozoites. Conditions: 1 µM [3H]-hypoxanthine over 300 s, with or without 1 mM unlabelled hypoxanthine.
For data set [5], the system named is T. vaginalis trophozoites. In words: [3H]-guanine transport in T. vaginalis trophozoites. In kind it is cell-based, Trichomonas vaginalis. Conditions: 2 µM [3H]-guanine.
Data set [6] concerns O=c1ccn([C@@H]2O[C@H](CO)[C@@H](O)[C@H]2O)c(=O)[nH]1. In words: cells, lysate or membranes. Conditions: other: single experiment, Fig. 11D inset.
The target of data set [7] is T. vaginalis nucleoside transporters, Guanosine (HA). Briefly: [3H]-guanosine transport in T. vaginalis trophozoites. In kind it is cell-based, Trichomonas vaginalis. Conditions: read-out: Ki,app; inhibition of [3H]-guanosine transport; monophasic sigmoid curve; average and SEM.
In data set [8] the target is T. vaginalis nucleoside transporters, Inosine (LA). In words: Low affinity [3H]-inosine transport in T. vaginalis trophozoites. In kind it is cell-based, Trichomonas vaginalis. Conditions: read-out: Ki,app, inhibition of 1 µM [3H]-inosine uptake, average and SEM.
For data set [9], the target named is T. vaginalis nucleoside transporters, Uridine (HA). Briefly: [3H]-uridine transport in T. vaginalis trophozoites. In kind it is cell-based, Trichomonas vaginalis. Conditions: read-out: Ki,app; inhibition of 0.5 µM [3H]-uridine transport, 30 s; average and SEM.
Data set [10] deals with T. vaginalis nucleoside transporters, Cytidine (HA). In words: High affinity [3H]-cytidine transport in T. vaginalis trophozoites. Format: cell-based, Trichomonas vaginalis. Conditions: read-out: Ki,app, inhibition of […] [3H]-cytidine transport, 30 s, average and SEM.
Data set [11] addresses T. vaginalis nucleoside transporters, Cytidine (LA). Briefly: Low affinity cytidine transport in T. vaginalis trophozoites. Conditions: read-out: Ki,app; inhibition of Cytidine (LA) transport; average and SEM. In kind it is cell-based, Trichomonas vaginalis.
The subject of data set [12] is T. vaginalis nucleoside transporters, Thymidine (LA). Briefly: Low affinity thymidine transport. In kind it is cell-based, Trichomonas vaginalis. Conditions: 1 µM [3H]-thymidine; single experiment, Fig. 3E.
The subject of data set [13] is low affinity pyrimidine nucleobase transporter of T. vaginalis. Briefly: [3H]-uracil transport in T. vaginalis trophozoites. Conditions: uridine, thymidine up to 10 mM; adenosine, inosine up to 1 mM. In kind it is cell-based, Trichomonas vaginalis.
In data set [14] the test system is T. vaginalis adenine transporter. Briefly: [3H]-adenine transport in T. vaginalis trophozoites. In kind it is cell-based, Trichomonas vaginalis.
Data set [15] concerns T. vaginalis nucleoside transporters. Conditions: ref Harris et al., 1988; cited from earlier work.
Another data set addresses TvagENT6 (Trichomonas vaginalis, UniProt A2EMT5). In words: cell-based.
Another data set deals with TvagENT3 (Trichomonas vaginalis, UniProt A2E5Q3). In words: [3H]-cytidine uptake by T. brucei TbAT1-KO cells expressing TvagENT3.

Values joined by “and” are separate entries in the source; they are usually repeats but may differ in a detail not shown here. Equal values may be shown once. Read-outs that look alike come from different tables or passages of the source.

As to `O=c1[nH]cnc2nc[nH]c12` [hypoxanthine], the Ki was 185 ± 37 µM in [1] (read-out: Ki,app, inhibition of […] [3H]-adenosine transport, 30 s, monophasic, average and SEM); above 1000 µM in [3] (read-out: Ki,app, inhibition of 20 µM [3H]-adenosine transport, average and SEM). Also, the inhibition of transport in data set [2] is reported as at most 50%; in [3] (20 µM [3H]-adenosine, highest tested concentration: guanosine 250 µM, adenine 1 mM, hypoxanthine 1 mM, uracil 10 mM) it was at most 50%. The specific uptake result in data set [4] is on record as “no specific uptake”.
For `Nc1nc2nc[nH]c2c(=O)[nH]1` [guanine], the rate of uptake in [5] is 0.017 ± 0.002 pmol(10^7 cells)^−1s^−1 and 0.0167 ± 0.0020 pmol(10^7 cells)^−1s^−1.
Regarding TvagENT6 (Trichomonas vaginalis G3), the Km in data set [6] was found to be 125.4 µM.
With `Nc1ncnc2c1ncn2[C@@H]1O[C@H](CO)[C@@H](O)[C@H]1O` [adenosine], the “rate of transport in the presence of unlabelled permeant” value in [1] (0.25 µM [3H]-adenosine + 1 mM unlabelled adenosine) is given as 0.0091 ± 0.0085 pmol(10^7 cells)^−1s^−1. In addition, the inhibition of uptake in [1] (0.25 µM [3H]-adenosine by 1 mM unlabelled adenosine) is above 99%. Moreover, the rate of transport in data set [1] (0.25 µM [3H]-adenosine, over 60 s, uninhibited) is 1.15 pmol(10^7 cells)^−1s^−1 and 1.15 ± 0.06 pmol(10^7 cells)^−1s^−1. Moreover, the Vmax is 9.5 ± 2.4 pmol(10^7 cells)^−1s^−1 in data set [1] (Adenosine (HA), average and SEM); 31 ± 2 pmol(10^7 cells)^−1s^−1 in [3] (Adenosine (LA), average and SEM). Also, the Km was 6.2 ± 0.6 µM in data set [1] (read-out: Km,app, Adenosine (HA), […] [3H]-adenosine, 30 s, average and SEM); 59.4 ± 6.1 µM in [3] (Adenosine (LA), 20 µM [3H]-adenosine, average and SEM); 59 ± 6 µM in [3] (Adenosine (LA), 20 µM [3H]-adenosine, average and SEM, listed as Adenosine); 63.5 µM in data set [3] (single experiment, Fig. 4A inset); 3.9 µM in [15]. Moreover, the Ki worked out at 4.1 ± 0.9 µM in data set [7]; 6.36 ± 1.69 µM in data set [8]; 6.4 ± 1.7 µM in [8] (listed as Adenosine); 8.16 ± 0.59 µM in data set [9]; 2.18 ± 0.29 µM in data set [10]; 2.2 ± 0.3 µM in data set [10] (listed as Adenosine). Also, the Ki worked out at 357 ± 32 µM in data set [11]; 155 ± 48 µM in data set [14] (read-out: Ki,app, inhibition of 50 nM [3H]-adenine transport); 47.2 ± 6.4 µM at TvagENT6. In addition, the EC50 in data set [3] (inhibition of 20 µM [3H]-adenosine transport, single experiment, Fig. 4) amounted to 60.5 µM; in [12] it was 89.8 µM; in data set [14], 85.9 µM. In data set [13], the “inhibition of uracil transport” value was “unable to inhibit”. For the same compound, the Hill slope is recorded as −1.04 ± 0.07 at TvagENT3 and −1.1 at TvagENT3 (single experiment, Fig. 10D-F). For the same compound, the “inhibition of cytidine uptake” value against TvagENT3 (0.5 µM [3H]-cytidine, inhibitor at 400 µM) was “completely”.
